# Source: patent publication US5635593A (priority 1995, dated 1997)
# Peptide text beside a SMILES is read from it.
# Columns and labels:
# [1] = biological target: T1, BK2 receptor (Cavia porcellus, UniProt O70526); assay: guinea-pig ileum (GPI) in vitro, antagonism of BK
# T1 construct: tested for activity on guinea pig ileum in vitro on the standard tissue bath/strain gauge system; from tissue; host or cells: guinea pig ileum
# T1 sequence (O70526 1-372): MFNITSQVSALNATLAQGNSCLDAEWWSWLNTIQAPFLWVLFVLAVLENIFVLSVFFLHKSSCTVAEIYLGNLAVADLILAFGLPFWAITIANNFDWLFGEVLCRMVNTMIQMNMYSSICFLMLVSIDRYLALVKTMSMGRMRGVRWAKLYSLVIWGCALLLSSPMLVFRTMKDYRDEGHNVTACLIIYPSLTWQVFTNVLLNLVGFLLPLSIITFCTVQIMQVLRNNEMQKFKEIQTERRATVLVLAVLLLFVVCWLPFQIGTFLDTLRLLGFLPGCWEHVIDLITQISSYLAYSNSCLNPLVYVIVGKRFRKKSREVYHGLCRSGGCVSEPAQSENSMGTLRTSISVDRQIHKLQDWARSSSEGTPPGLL
# Description: (§1) Thus, in vitro studies were performed on standard assay systems, namely, guinea-pig ileum (GPI), rat uterus (RU) and rabbit jugular vein (RJV). […] The potency of each compound was assessed as a pA2 value according to the method of Arunlakshana & Schild, Br. J. Pharmacol. Chemother., 14:48-58 (1959). The pA2 can be defined as the negative logarithm of the molar concentration of the antagonist in the presence of which the potency of the agonist is reduced two-fold, i.e., twice the amount of agonist is required to produce a given response in the presence of, than in the absence of, the antagonist. A high potency of antagonism is indicated by a high pA2 value. i.e., a low concentration of antagonist is effective.
# The percentage recovery (% Rec) was also determined for compounds with respect to each assay.
# The Cys-modified monomers and the resultant dimers were tested for activity on guinea pig ileum in vitro on the standard tissue bath/strain gauge system as before.
# [2] = biological target: T2, BK2 -receptor (Rattus norvegicus, UniProt P25023); assay: rat uterus (RU) in vitro, antagonism of BK; conditions: percentage recovery after washing
# T2 construct: guinea-pig ileum (GPI), rat uterus (RU) and rabbit jugular vein (RJV); from tissue; host or cells: rat uterus
# T2 sequence (P25023 1-396): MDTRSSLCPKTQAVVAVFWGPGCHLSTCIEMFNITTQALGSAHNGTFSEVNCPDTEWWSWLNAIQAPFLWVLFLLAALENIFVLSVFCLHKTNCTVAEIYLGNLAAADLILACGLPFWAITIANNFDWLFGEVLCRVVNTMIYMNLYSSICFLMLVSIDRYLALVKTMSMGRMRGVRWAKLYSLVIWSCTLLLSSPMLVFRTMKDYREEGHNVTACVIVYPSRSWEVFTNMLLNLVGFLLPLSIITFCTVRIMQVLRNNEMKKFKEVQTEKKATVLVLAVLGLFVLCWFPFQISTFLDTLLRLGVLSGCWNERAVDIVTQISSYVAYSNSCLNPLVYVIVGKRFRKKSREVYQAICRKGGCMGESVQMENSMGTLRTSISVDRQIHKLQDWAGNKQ
# [3] = biological target: T3, BK2 receptor (Oryctolagus cuniculus, UniProt Q28642); assay: rabbit jugular vein (RJV) in vitro, antagonism of BK; conditions: percentage recovery after washing
# T3 construct: from tissue; host or cells: whole animal (rabbit, LPS-pretreated), blood pressure response
# T3 sequence (Q28642 1-367): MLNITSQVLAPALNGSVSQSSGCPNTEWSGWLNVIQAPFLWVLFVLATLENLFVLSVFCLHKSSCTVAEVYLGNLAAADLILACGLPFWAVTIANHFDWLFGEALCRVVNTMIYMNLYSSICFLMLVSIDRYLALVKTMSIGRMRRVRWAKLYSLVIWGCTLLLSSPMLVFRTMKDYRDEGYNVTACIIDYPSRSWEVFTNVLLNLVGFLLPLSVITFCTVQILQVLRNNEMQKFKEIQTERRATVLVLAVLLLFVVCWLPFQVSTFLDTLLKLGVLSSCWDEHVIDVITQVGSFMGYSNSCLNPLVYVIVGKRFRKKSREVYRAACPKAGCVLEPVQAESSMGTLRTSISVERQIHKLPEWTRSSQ
# Description: as §1
# The percentage recovery (% Rec) was also determined for compounds with respect to each assay. Percentage recovery is a measure of the duration of action, the lower the percentage recovery value, the greater the duration of action of the compound.
# [4] = test system: blood pressure responses to BK; format: in vivo; conditions: anaesthetized rat, dose response curve n=10
SMILES,"Kb ([1]; against BK, read-out: pA2 guinea pig ileum (converted)) [nM]",% REC rat uterus [2] [%],pA2 guinea pig ileum ([1]; against BK),% REC GPI ([1]; percentage recovery after washing) [%],% REC RJV [3] [%],"ED50 of BK, blood pressure [4] [nmol]"
"CC(C)C[C@H](NC(=O)[C@@H](Cc1ccccc1)NC(=O)[C@H](CO)NC(=O)[C@H](Cc1ccccc1)NC(=O)CNC(=O)[C@@H]1C[C@@H](O)CN1C(=O)[C@@H]1CCCN1C(=O)[C@H](CCCNC(=N)N)NC(=O)[C@H](N)CSC1CC(=O)N(CCCCCCN2C(=O)CC(SC[C@@H](N)C(=O)N[C@@H](CCCNC(=N)N)C(=O)N3CCC[C@H]3C(=O)N3C[C@H](O)C[C@H]3C(=O)NCC(=O)N[C@@H](Cc3ccccc3)C(=O)N[C@@H](CO)C(=O)N[C@H](Cc3ccccc3)C(=O)N[C@@H](CC(C)C)C(=O)N[C@@H](CCCNC(=N)N)C(=O)O)C2=O)C1=O)C(=O)N[C@@H](CCCNC(=N)N)C(=O)O (stereo partly shown) [CP-0161] (HELM PEPTIDE1{[dC].R.P.[Hyp].G.F.S.[dF].L.R}|PEPTIDE2{[dC].R.P.[Hyp].G.F.S.[dF].L.R}|CHEM1{[O=C1CC([*:1])C(=O)N1CCCCCCN1C(=O)CC([*:2])C1=O]}$PEPTIDE1,CHEM1,1:R3-1:R1|PEPTIDE2,CHEM1,1:R3-1:R2$$$V2.0)",316,100,–,–,–,–
"CC(C)C[C@H](NC(=O)[C@@H](Cc1ccccc1)NC(=O)[C@H](CSC1CC(=O)N(CCCCCCN2C(=O)CC(SC[C@H](NC(=O)[C@H](Cc3ccccc3)NC(=O)CNC(=O)[C@@H]3C[C@@H](O)CN3C(=O)[C@@H]3CCCN3C(=O)[C@H](CCCNC(=N)N)NC(=O)[C@H](N)CCCNC(=N)N)C(=O)N[C@H](Cc3ccccc3)C(=O)N[C@@H](CC(C)C)C(=O)N[C@@H](CCCNC(=N)N)C(=O)O)C2=O)C1=O)NC(=O)[C@H](Cc1ccccc1)NC(=O)CNC(=O)[C@@H]1C[C@@H](O)CN1C(=O)[C@@H]1CCCN1C(=O)[C@H](CCCNC(=N)N)NC(=O)[C@H](N)CCCNC(=N)N)C(=O)N[C@@H](CCCNC(=N)N)C(=O)O (stereo partly shown) [CP-0127] (HELM PEPTIDE1{[dR].R.P.[Hyp].G.F.C.[dF].L.R}|PEPTIDE2{[dR].R.P.[Hyp].G.F.C.[dF].L.R}|CHEM1{[O=C1CC([*:1])C(=O)N1CCCCCCN1C(=O)CC([*:2])C1=O]}$PEPTIDE1,CHEM1,7:R3-1:R1|PEPTIDE2,CHEM1,7:R3-1:R2$$$V2.0)",–,50,7.7,100,10,–
"NC(N)=NCCC[C@H](NC(=O)[C@H](Cc1ccccc1)NC(=O)[C@@H]1CCCN1C(=O)[C@H](CO)NC(=O)[C@H](Cc1ccccc1)NC(=O)CNC(=O)[C@@H]1CCCN1C(=O)[C@@H]1CCCN1C(=O)[C@@H](N)CCCN=C(N)N)C(=O)O [BK, Arg^1 -Pro^2 -Pro^3 -Gly^4 -Phe^5 -Ser^6 -Pro^7 -Phe^8 -Arg^9] (H-RPPGFSPFR-OH)",–,–,–,–,–,0.4
